{"source": "PubChem BioAssay (NCI)", "assay_in_all_cases": "inhibition of tumour cell growth, NCI panel, 48 h", "key": {"K-562 leukemia": {"tested_on": "K-562 leukemia"}, "HOP-62 NSCLC": {"tested_on": "HOP-62 NSCLC"}, "HCC-2998 colon": {"tested_on": "HCC-2998 colon"}, "MOLT-4 leukemia": {"tested_on": "MOLT-4 leukemia"}, "ACHN renal": {"tested_on": "ACHN renal"}, "MALME-3M melanoma": {"tested_on": "MALME-3M melanoma"}, "OVCAR-3 ovarian": {"tested_on": "OVCAR-3 ovarian"}, "DMS 114 small cell lung": {"tested_on": "DMS 114 small cell lung"}, "NCI-H23 lung": {"tested_on": "NCI-H23 lung"}, "SR leukemia": {"tested_on": "SR leukemia"}, "DMS 273 small cell lung": {"tested_on": "DMS 273 small cell lung"}, "UO-31 renal": {"tested_on": "UO-31 renal"}, "EKVX NSCLC": {"tested_on": "EKVX NSCLC"}, "SK-MEL-2 melanoma": {"tested_on": "SK-MEL-2 melanoma"}, "NCI-H226 lung": {"tested_on": "NCI-H226 lung"}, "SN12C renal": {"tested_on": "SN12C renal"}, "OVCAR-4 ovarian": {"tested_on": "OVCAR-4 ovarian"}, "XF 498 CNS": {"tested_on": "XF 498 CNS"}, "SNB-78 CNS": {"tested_on": "SNB-78 CNS"}, "OVCAR-8 ovarian": {"tested_on": "OVCAR-8 ovarian"}, "SF-268 CNS": {"tested_on": "SF-268 CNS"}, "SNB-19 CNS": {"tested_on": "SNB-19 CNS"}, "SK-MEL-28 melanoma": {"tested_on": "SK-MEL-28 melanoma"}, "RXF-631 renal": {"tested_on": "RXF-631 renal"}, "LOX IMVI melanoma": {"tested_on": "LOX IMVI melanoma"}, "SF-295 CNS": {"tested_on": "SF-295 CNS"}, "RPMI-8226 leukemia": {"tested_on": "RPMI-8226 leukemia"}, "RXF 393 renal": {"tested_on": "RXF 393 renal"}, "COLO 205 colon": {"tested_on": "COLO 205 colon"}, "CAKI-1 renal": {"tested_on": "CAKI-1 renal"}, "KM12 colon": {"tested_on": "KM12 colon"}, "HCT-15 colon": {"tested_on": "HCT-15 colon"}, "IGROV1 ovarian": {"tested_on": "IGROV1 ovarian"}, "SW-620 colon": {"tested_on": "SW-620 colon"}, "UACC-62 melanoma": {"tested_on": "UACC-62 melanoma"}, "LXFL 529 NSCLC": {"tested_on": "LXFL 529 NSCLC"}, "KM20L2 colon": {"tested_on": "KM20L2 colon"}, "U251 CNS": {"tested_on": "U251 CNS"}, "HCT-116 colon": {"tested_on": "HCT-116 colon"}, "NCI-H460 lung": {"tested_on": "NCI-H460 lung"}, "M14 melanoma": {"tested_on": "M14 melanoma"}, "OVCAR-5 ovarian": {"tested_on": "OVCAR-5 ovarian"}, "HOP-18 NSCLC": {"tested_on": "HOP-18 NSCLC"}, "TK-10 renal": {"tested_on": "TK-10 renal"}, "NCI-H522 lung": {"tested_on": "NCI-H522 lung"}, "HT29 colon": {"tested_on": "HT29 colon"}, "M19-MEL melanoma": {"tested_on": "M19-MEL melanoma"}}, "note": "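Grown in 96-well plates, cells were treated for 48 hours with each compound at five concentrations. Insufficient inhibition: endpoint recorded as highest concentration tested. TGI marks complete inhibition of growth.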", "data": [{"smiles": "O=C(c1ccccc1)[C@H]1Nc2ccc(Cl)cc2[C@H]2OCCC[C@@H]12", "values": [{"measurement": "TGI", "setting": "K-562 leukemia", "result": 51.4, "unit": "µM"}, {"measurement": "TGI", "setting": "HOP-62 NSCLC", "result": 32.6, "unit": "µM"}, {"measurement": "TGI", "setting": "HCC-2998 colon", "result": 45.8, "unit": "µM"}, {"measurement": "TGI", "setting": "MOLT-4 leukemia", "result": 61.7, "unit": "µM"}, {"measurement": "TGI", "setting": "ACHN renal", "result": 93.5, "unit": "µM"}, {"measurement": "TGI", "setting": "MALME-3M melanoma", "result": 48.1, "unit": "µM"}, {"measurement": "TGI", "setting": "OVCAR-3 ovarian", "result": 30.7, "unit": "µM"}, {"measurement": "TGI", "setting": "DMS 114 small cell lung", "result": 37.1, "unit": "µM"}, {"measurement": "TGI", "setting": "NCI-H23 lung", "result": 52, "unit": "µM"}, {"measurement": "TGI", "setting": "SR leukemia", "result": 79.2, "unit": "µM"}, {"measurement": "TGI", "setting": "DMS 273 small cell lung", "result": 39, "unit": "µM"}, {"measurement": "TGI", "setting": "UO-31 renal", "result": 33, "unit": "µM"}, {"measurement": "TGI", "setting": "EKVX NSCLC", "result": 50.4, "unit": "µM"}, {"measurement": "TGI", "setting": "SK-MEL-2 melanoma", "result": 43.9, "unit": "µM"}, {"measurement": "TGI", "setting": "NCI-H226 lung", "result": 47.7, "unit": "µM"}, {"measurement": "TGI", "setting": "SN12C renal", "result": 37.5, "unit": "µM"}, {"measurement": "TGI", "setting": "OVCAR-4 ovarian", "result": 45, "unit": "µM"}, {"measurement": "TGI", "setting": "XF 498 CNS", "result": 33.6, "unit": "µM"}, {"measurement": "TGI", "setting": "SNB-78 CNS", "result": 72.1, "unit": "µM"}, {"measurement": "TGI", "setting": "OVCAR-8 ovarian", "result": 41.9, "unit": "µM"}, {"measurement": "TGI", "setting": "SF-268 CNS", "result": 39.5, "unit": "µM"}, {"measurement": "TGI", "setting": "SNB-19 CNS", "result": 90.3, "unit": "µM"}, {"measurement": "TGI", "setting": "SK-MEL-28 melanoma", "result": 32.2, "unit": "µM"}, {"measurement": "TGI", "setting": "RXF-631 renal", "result": 34.5, "unit": "µM"}, {"measurement": "TGI", "setting": "LOX IMVI melanoma", "result": 31.2, "unit": "µM"}, {"measurement": "TGI", "setting": "SF-295 CNS", "result": 32.8, "unit": "µM"}, {"measurement": "TGI", "setting": "RPMI-8226 leukemia", "result": 57.7, "unit": "µM"}, {"measurement": "TGI", "setting": "RXF 393 renal", "result": 32.4, "unit": "µM"}, {"measurement": "TGI", "setting": "COLO 205 colon", "result": 45.7, "unit": "µM"}, {"measurement": "TGI", "setting": "CAKI-1 renal", "result": 63, "unit": "µM"}, {"measurement": "TGI", "setting": "KM12 colon", "result": 34.1, "unit": "µM"}, {"measurement": "TGI", "setting": "HCT-15 colon", "result": 43.8, "unit": "µM"}, {"measurement": "TGI", "setting": "IGROV1 ovarian", "result": "> 100", "unit": "µM"}, {"measurement": "TGI", "setting": "SW-620 colon", "result": 39.1, "unit": "µM"}, {"measurement": "TGI", "setting": "UACC-62 melanoma", "result": 33.5, "unit": "µM"}, {"measurement": "TGI", "setting": "LXFL 529 NSCLC", "result": 33.5, "unit": "µM"}, {"measurement": "TGI", "setting": "KM20L2 colon", "result": 39.4, "unit": "µM"}, {"measurement": "TGI", "setting": "U251 CNS", "result": 31.7, "unit": "µM"}, {"measurement": "TGI", "setting": "HCT-116 colon", "result": 31.5, "unit": "µM"}, {"measurement": "TGI", "setting": "NCI-H460 lung", "result": 34.5, "unit": "µM"}, {"measurement": "TGI", "setting": "M14 melanoma", "result": 31.9, "unit": "µM"}, {"measurement": "TGI", "setting": "OVCAR-5 ovarian", "result": 35.3, "unit": "µM"}, {"measurement": "TGI", "setting": "HOP-18 NSCLC", "result": 55.7, "unit": "µM"}, {"measurement": "TGI", "setting": "TK-10 renal", "result": 64.6, "unit": "µM"}, {"measurement": "TGI", "setting": "NCI-H522 lung", "result": 36.8, "unit": "µM"}, {"measurement": "TGI", "setting": "HT29 colon", "result": 35.3, "unit": "µM"}, {"measurement": "TGI", "setting": "M19-MEL melanoma", "result": 49.1, "unit": "µM"}]}]}
